For data set [1], the species on record is Mus musculus. In words: Analgesic activity in mice using p-phenylquinone test. The data set is classed as functional.
Data set [2] concerns Rattus norvegicus. As to the kind of experiment: Anti-inflammatory effect expressed as % inhibition at 50 mg/kg in acute carrageenan paw edema test in rats. It is filed as functional.
Data set [3] concerns Mus musculus. In words: General behavior in mice after oral administration (750 mg/kg) using acute toxicity assay; Convulsions. It is filed as functional, organism-based.
Data set [4] is described as follows: Percent mortality in mice after oral administration (750 mg/kg) using acute toxicity assay. As to conditions: mouse, in vivo. It is filed as organism-based.
For data set [5], the system named is Mus musculus. As to the kind of experiment: General behavior in mice after oral administration (1000 mg/kg) using acute toxicity assay; normal. The data set is classed as functional, organism-based.
Data set [6] is described as follows: Percent mortality in mice after oral administration (1000 mg/kg) using acute toxicity assay. It is filed as organism-based. Conditions: mouse, in vivo.
The subject of data set [7] is Mus musculus. As to the kind of experiment: General behavior in mice after oral administration (1000 mg/kg) using acute toxicity assay; decreased muscular tonus. It is filed as functional, organism-based.
A short description of data set [8]: Percent mortality in mice after oral administration (500 mg/kg) using acute toxicity assay. The data set is classed as organism-based. As to conditions: mouse, in vivo.
Data set [9] deals with Mus musculus. In words: General behavior in mice after oral administration (500 mg/kg) using acute toxicity assay; Convulsions. It is filed as functional, organism-based.
For data set [10], the system named is Mus musculus. In words: General behavior in mice after oral administration (1000 mg/kg) using acute toxicity assay; Normal. The data set is classed as functional, organism-based.
Data set [11] deals with Rattus norvegicus. As to the kind of experiment: Anti-inflammatory effect expressed as % inhibition at 50 mg/kg in acute carrageenan paw edema test in rats; No inhibition. The data set is classed as functional, organism-based. Details: dose 50 mg/kg. A general note: In the carrageenan paw model, swelling and tenderness develop within hours.
Data set [12] deals with Rattus norvegicus. In words: Anti-inflammatory effect expressed as % inhibition at 100 mg/kg in acute carrageenan paw edema test in rats. It is filed as functional.
In data set [13] the test system is Mus musculus. As to the kind of experiment: General behavior in mice after oral administration (1000 mg/kg) using acute toxicity assay; Increased muscular tonus. The data set is classed as functional, organism-based.
Data set [14] deals with Mus musculus. As to the kind of experiment: General behavior in mice after oral administration (1000 mg/kg) using acute toxicity assay; convulsions. It is filed as functional, organism-based.
Data set [15] has as its system Rattus norvegicus. As to the kind of experiment: Anti-inflammatory effect expressed as % inhibition at 100 mg/kg in acute carrageenan paw edema test in rats; No inhibition. The data set is classed as functional, organism-based. Set-up: dose 100 mg/kg.
The subject of data set [16] is Mus musculus. As to the kind of experiment: General behavior in mice after oral administration (1000 mg/kg) using acute toxicity assay; sedation, decreased muscular tonus. The data set is classed as functional, organism-based.
Data set [17] relates to Mus musculus. In words: General behavior in mice after oral administration (1000 mg/kg) using acute toxicity assay; Convulsions. The data set is classed as functional, organism-based.
The test system of data set [18] is Mus musculus. As to the kind of experiment: General behavior in mice after oral administration (1000 mg/kg) using acute toxicity assay; decreased locomotor activity, decreased muscular tonus. The data set is classed as functional, organism-based.
Data set [19] has as its system Mus musculus. In words: General behavior in mice after oral administration (1000 mg/kg) using acute toxicity assay; Increased locomotor activity, convulsive tendency. The data set is classed as functional, organism-based.
For data set [20], the system named is Mus musculus. In words: General behavior in mice after oral administration (1000 mg/kg) using acute toxicity assay; decreased locomotor activity, increased muscular tonus. The data set is classed as functional, organism-based.
Data set [21] relates to Mus musculus. In words: General behavior in mice after oral administration (500 mg/kg) using acute toxicity assay; Increased muscular tonus. It is filed as functional, organism-based.

The source made the active and inactive calls. No cut-off for these calls is given here.

As to `COc1ccc2c3c1O[C@H]1[C@@H](O)C=C[C@H]4[C@@H](C2)N(C)CC[C@@]341` [CODEINE], in the data set filed under Mus musculus [1], it took a dose of 9.7 mg/kg to reach the 50% effect level (ED50). Further, the inhibition in vivo (as a rule, the share of the control response that was lost under treatment) at 50 mg/kg in the data set with Rattus norvegicus [2] worked out at 20%. In the data set with Mus musculus [3], the Behavior entry was “Active”. Further, the mortality – broadly, the percentage killed – in data set [4] worked out at 40%.

For `O=c1oc2cccnc2n1CCN1CCN(c2ccc(Oc3ccccc3)cc2)CC1`, the ED50 (as a rule, the midpoint of the dose-response relation) in the data set filed under Mus musculus [1] was more than 50 mg/kg. Further, the Behavior entry in the data set with Mus musculus [5] is listed as “normal”. The molecule also displayed a mortality in data set [6] of 0%.

For the molecule `O=c1oc2cccnc2n1CCN1CCN(c2ccc(F)cc2)CC1`, in the data set listed under Mus musculus [1], the 50% effect level (ED50) was put at a dose of 41.3 mg/kg. Also, the Behavior result in the data set on Mus musculus [7] is recorded as “decreased muscular tonus”. Besides, in the data set with Rattus norvegicus [2], 50 mg/kg produced 16% inhibition in vivo. This molecule returned a mortality in data set [6] of 0%.

`O=c1oc2cccnc2n1CN1CCN(c2ccccc2)CC1` gave an ED50 in the data set filed under Mus musculus [1] of 5.9 mg/kg. Moreover, in data set [8], the mortality worked out at 70%. In addition, in the data set on Rattus norvegicus [2], the inhibition in vivo at 50 mg/kg was 11%. Besides, in the data set on Mus musculus [9], the Behavior result is given as “Convulsions”.

Consider `COc1ccccc1N1CCN(Cn2c(=O)oc3cccnc32)CC1`, for which, in the data set listed under Mus musculus [1], the ED50 is more than 25 mg/kg. The same molecule had a mortality in data set [8] of 100%. This molecule also returned an inhibition in vivo at 50 mg/kg in the data set with Rattus norvegicus [2] of 15%. For the same molecule, the Behavior result in the data set with Mus musculus [9] is listed as “Convulsions”.

In the data set filed under Mus musculus [1], `O=c1oc2ccccc2n1CCN1CCN(c2cccc(C(F)(F)F)c2)CC1` had an ED50 of 30.2 mg/kg. The Behavior result in the data set on Mus musculus [10] was “Normal”. Besides, the inhibition entry with Rattus norvegicus [11] is “inactive”. In addition, the mortality in [6] is 0%.

As for `O=c1oc2cccnc2n1CCN1CCOCC1`, the median effective dose (ED50) in the data set filed under Mus musculus [1] was more than 25 mg/kg. In the data set with Rattus norvegicus [12], this molecule gave an inhibition in vivo at 100 mg/kg of 7%. The molecule further gave a mortality in data set [6] of 50%. Besides, in the data set with Mus musculus [13], the Behavior entry is listed as “Increased muscular tonus”.

In the data set filed under Mus musculus [1], `O=c1oc2cccnc2n1CCN1CCN(c2ccccc2)CC1` registered a 50% effective dose (ED50) of 19.4 mg/kg. Besides, the Behavior result in the data set on Mus musculus [10] is “Normal”. This molecule gave an inhibition in vivo at 50 mg/kg with Rattus norvegicus [2] of 13%. The molecule further returned a mortality in data set [6] of 0%.

In the data set filed under Mus musculus [1], `O=c1oc2cccnc2n1CCN1CCCCC1` returned an ED50 of more than 25 mg/kg. In the data set on Rattus norvegicus [12], this molecule had an inhibition in vivo at 100 mg/kg of 21%. In addition, the Behavior result in the data set with Mus musculus [14] is listed as “convulsions”. Besides, the mortality in data set [6] came to 66%.

For `O=c1oc2cccnc2n1CN1CCN(c2ccc(Cl)cc2)CC1`, it took a dose of 10.6 mg/kg to reach the 50% effect level in the data set filed under Mus musculus [1] (ED50). The mortality in data set [8] was found to be 90%. Further, in the data set with Rattus norvegicus [2], at 50 mg/kg the inhibition in vivo was 23%. Also, in the data set on Mus musculus [9], the Behavior result is “Convulsions”.

As to `COc1ccccc1N1CCN(CCn2c(=O)oc3cccnc32)CC1`, the 50% effective dose (ED50) in the data set filed under Mus musculus [1] was more than 50 mg/kg. The Behavior result with Mus musculus [10] was “Normal”. In addition, the inhibition result with Rattus norvegicus [15] is “inactive”. Further, in data set [6], the mortality is 0%.

`O=c1oc2ccccc2n1CCN1CCN(c2ccccc2)CC1` displayed an ED50 in the data set listed under Mus musculus [1] of more than 50 mg/kg. Also, the inhibition in vivo at 50 mg/kg in the data set on Rattus norvegicus [2] was 1%. Besides, in the data set on Mus musculus [16], the Behavior entry was “sedation, decreased muscular tonus”. In data set [6], this molecule gave a mortality of 0%.

With `O=c1oc2cccnc2n1CCCCN1CCN(c2ccccc2)CC1`, the Behavior result in the data set with Mus musculus [17] was “Convulsions”. Besides, in the data set listed under Mus musculus [1], the ED50 is more than 25 mg/kg. Moreover, the mortality in data set [6] came out at 100%.

Consider `O=c1oc2cc(Br)cnc2n1CCN1CCN(c2ccccc2)CC1`, for which, in the data set filed under Mus musculus [1], the 50% effective dose (ED50) is 34.1 mg/kg. For the same molecule, the Behavior entry in the data set with Mus musculus [5] is “normal”. Also, the mortality in data set [6] came to 0%.

With `O=c1oc2cccnc2n1CCCN1CCN(c2ccccc2)CC1`, the 50% effect level in the data set listed under Mus musculus [1] (ED50) was put at a dose of 15.5 mg/kg. The inhibition in vivo at 50 mg/kg with Rattus norvegicus [2] came out at 16%. The Behavior entry in the data set with Mus musculus [18] is “decreased locomotor activity, decreased muscular tonus”. The mortality in [6] stood at 10%.

Take `O=c1oc2cccnc2n1CCN1CCN(c2cccc(C(F)(F)F)c2)CC1`: the ED50 in the data set filed under Mus musculus [1] came out at 11.4 mg/kg. For the same molecule, the inhibition entry in the data set with Rattus norvegicus [11] was “inactive”. In addition, the Behavior entry with Mus musculus [19] is on record as “Increased locomotor activity, convulsive tendancy”. The same molecule displayed a mortality in data set [6] of 0%.

`O=c1oc2cccnc2n1CN1CCN(c2cccc(Cl)c2)CC1` registered a median effective dose (ED50) in the data set filed under Mus musculus [1] of 10.5 mg/kg. For the same molecule, the mortality in data set [8] turned out to be 100%. In the data set with Rattus norvegicus [2], this molecule displayed an inhibition in vivo at 50 mg/kg of 27%. Also, in the data set on Mus musculus [9], the Behavior result is on record as “Convulsions”.

In the data set listed under Mus musculus [1], `O=c1oc2cccnc2n1CCCN1CCN(c2cccc(C(F)(F)F)c2)CC1` registered an ED50 of 22 mg/kg. Further, the inhibition result in the data set on Rattus norvegicus [11] is “inactive”. The Behavior result in the data set with Mus musculus [14] is “convulsions”. For the same molecule, in [6], the mortality was found to be 50%.

In the case of `O=c1oc2cccnc2n1CN1CCN(c2ccccc2Cl)CC1`, the 50% effective dose (ED50) in the data set listed under Mus musculus [1] stood at 22.2 mg/kg. This molecule returned a mortality in [8] of 100%. In addition, the Behavior entry with Mus musculus [9] was “Convulsions”. Moreover, the inhibition entry in the data set on Rattus norvegicus [11] is “inactive”.

Regarding `O=c1oc2cccnc2n1CCN1CCN(c2ccc(Cl)cc2)CC1`, the ED50 in the data set listed under Mus musculus [1] is more than 50 mg/kg. Also, the Behavior result in the data set with Mus musculus [20] was “decreased locomotor activity, increased muscular tonus”. In data set [6], this molecule yielded a mortality of 0%.

For `CN1CCN(CCn2c(=O)oc3cccnc32)CC1`, the Behavior entry in the data set on Mus musculus [17] is given as “Convulsions”. This molecule also gave an ED50 in the data set listed under Mus musculus [1] of more than 25 mg/kg. Further, the inhibition result in the data set on Rattus norvegicus [15] was “inactive”. Further, the mortality in [6] was found to be 50%.

`O=c1oc2cccnc2n1CN1CCN(c2ccc(F)cc2)CC1`: the ED50 in the data set listed under Mus musculus [1] was 3.5 mg/kg. For the same molecule, the mortality in [8] was 100%. Besides, in the data set with Mus musculus [9], the Behavior entry was “Convulsions”.

Take `O=c1oc2cccnc2n1CN1CCN(c2cccc(C(F)(F)F)c2)CC1`: in the data set listed under Mus musculus [1], the 50% effect level (ED50) was put at a dose of 3.6 mg/kg. The molecule also yielded a mortality in data set [8] of 50%. Moreover, the inhibition in vivo at 50 mg/kg in the data set on Rattus norvegicus [2] was 25%. In the data set with Mus musculus [21], the Behavior result is “Increased muscular tonus”.

Consider `CCN(CC)CCn1c(=O)oc2cccnc21`, for which the Behavior result with Mus musculus [17] is recorded as “Convulsions”. Also, the ED50 in the data set listed under Mus musculus [1] is more than 25 mg/kg. Further, in data set [6], the mortality stood at 83%.

`O=C(OCC(O)CO)c1ccccc1Nc1ccnc2cc(Cl)ccc12` (stereo not drawn) [GLAFENINE]: the 50% effect level in the data set listed under Mus musculus [1] (ED50) was put at a dose of 29.3 mg/kg. The Behavior entry with Mus musculus [10] was “inactive”. The molecule also returned an inhibition in vivo at 50 mg/kg in the data set on Rattus norvegicus [2] of 36%. In data set [6], this molecule came in with a mortality of 30%.

`Cc1ccc2oc(=O)n(CCN3CCN(c4ccccc4)CC3)c2n1` yielded an ED50 in the data set filed under Mus musculus [1] of more than 50 mg/kg. Also, in the data set on Mus musculus [10], the Behavior entry is on record as “Normal”. Also, testing at 100 mg/kg in the data set on Rattus norvegicus [12] gave an inhibition in vivo of 2%. The mortality in [6] came to 0%.

These data come from ChEMBL document CHEMBL1126598, “Novel nonopioid non-antiinflammatory analgesics: 3-(aminoalkyl)- and 3-[(4-aryl-1-piperazinyl)alkyl]oxazolo[4,5-b]pyridin-2(3H)-ones” (J Med Chem, 1993).
